The values below come from patent publication US20050136444A1 (priority 2003, published 2005).

For one series, the system named is rats. The series is described as follows: Observed behaviors / side effects after systemic administration. The series is classed as in vivo, rat. On the procedure: These behaviors typically precede “barrel-rolling” seizures.
These effects persisted between 15 and 20 minutes. These effects were not observed in rats that received doses less than 10 mg/kg.
These effects persisted between 15 and 20 minutes and were shown by both sham-operated and SNL rats. These effects were not observed in rats that received doses less than 10 mg/kg. [drawing 22]
However, these effects were more robust and of longer duration (60-90 min).
These effects persisted between 60 and 90 minutes and were shown by both sham-operated and SNL rats. These effects were not observed in rats that received doses less than 10 mg/kg. [drawing 23]
A model of neuropathic pain was created in rats by tight ligation of the L5 and L6 spinal nerves. […] Rats were then treated with various doses of dPQR (3, 10 and 30 mg/kg, i.p.) and paw withdrawal thresholds were tested across a period of 3 hours.
A model of neuropathic pain was created in rats by tight ligation of the L5 and L6 spinal nerves. […] Rats were then treated with various doses of Compound 3099 (1, 3 and 10 mg/kg, i.p.) and paw withdrawal thresholds were tested across a period of 3 hours.
In an attempt to increase the efficacy of Compound 3099 in the SNL model, we administered a dose of 30 mg/kg (i.p.) to SNL rats. […] Further, these behaviors were also transient, such that, by the end of the testing period these effects appeared to have resolved.

For series [1], the target named is T1, NPFF1 (Homo sapiens, UniProt Q9GZQ6). The series is described as follows: Receptor Selection and Amplification Technology (R-SAT) functional assay, NPFF1. Format: cell-based. Also on record: expressed in transfected cells; host or cells: NIH3T3. The note with it: for NPFF1 % Efficacy Mean: Hydrochloride. The gist of the method:
(§1)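 NIH3T3 cells transiently transfected for 16-20 h with receptor and β-galactosidase plasmids, then grown with compound for five days at 5% CO2. Functional response read as β-galactosidase activity with ONPG substrate, colorimetric absorbance at 420 nm.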

The target in series [2] is T1, NPFF1. Kind of series: cAMP assay in transiently transfected HEK-T cells, NPFF1. The note with it: for Emax: HEK-T cell, read-out: NPFF1 % Efficacy Mean; for EC50: read-out: NPFF1 pEC50 Mean (converted). Also on record: expressed in transfected cells. Format: cell-based. The text has this: An assay was established for measuring cAMP in transiently transfected cells that takes advantage of the fact that most cells that are transfected with one gene, can be simultaneously transfected with other genes. Thus, the NPFF1 and NPFF2 receptors were transfected along with a Gs-coupled receptor (EP2) at a ratio of 5:1. […] Improvement was also detected in the sensitivity of the assay in some cases when cells are co-transfected with AC5 at ½-⅕ of the amount of DNA of the Gi-coupled receptor studied.
This set up was routinely used for the transfection of HEK-T cells with NPFF1 and NPFF2 receptors. After 48 hours the cAMP assay was set up using DiscoveRx assay protocol with transfected cells in suspension in the presence of varying concentrations of the NPFF ligands and 300 nM of […] in white bottom plates. Cells were incubated for 15 minutes at 37° C. At the end of incubation, cells were lysed and the remainder of the assay performed as per DiscoveRx protocol.
Cells were incubated for another 15 minutes at 37° C. following which the cells were lysed and processed as per kit protocol.

The test system of series [3] is L5/L6 SNL-induced Tactile Allodynia. Kind of series: L5/L6 SNL-induced Tactile Allodynia. Format: in vivo, rat. The note with it: for effect on L5/L6 SNL-induced tactile allodynia (paw withdrawal thresholds): various doses; for sensitivity to non-noxious mechanical stimulation in sham-operated rats: 10 mg/kg (1045, 2616), 30 mg/kg (dPQR). The text has this: This model of neuropathic pain was developed by Kim and Chung (Kim S H, Chung J M., “An experimental model for peripheral neuropathy produced by segmental spinal nerve ligation in the rat,” Pain, 1992 September; 50(3):355-63). This model requires the ligation of the L5 and L6 spinal nerves between the spinal cord and the entry point into the sciatic nerve. Seven to fourteen days following SNL surgery rats will be reassessed for their response thresholds to mechanical stimuli. For the assessment of paw withdrawal thresholds rats were allowed to acclimate within plexiglass enclosures for approximately 20 min. A series of calibrated von Frey filaments (1.56-15.0 g, logarithmically spaced) were applied to the plantar aspect of the injured hind paw until a response was elicited. Paw withdrawal thresholds to probing were determined according to a previously described method (Chaplan S R, Bach F W, Pogrel J W, Chung J M, Yaksh T L., “Quantitative assessment of tactile allodynia in the rat paw,” J Neurosci Methods, 1994 July;53(1):55-63). Paw withdrawal thresholds were determined to the nearest 0.1 g before surgery, then before and at multiple time points following compound administration. A significant reduction in the paw withdrawal threshold was interpreted as the presence of tactile allodynia.
In order to study the endogenous activity of the NPFF system following injury to peripheral nerves, the activity of a FF1 receptor antagonist, dPQR, was assessed in a model of neuropathic pain. In this model, the L5 and L6 spinal nerves between the spinal cord and the entry point into the sciatic nerve were ligated (Kim & Chung, 1992). Seven to fourteen days following SNL surgery rats were reassessed for their response thresholds to mechanical stimuli. For the assessment of paw withdrawal thresholds rats were allowed to acclimate within plexiglass enclosures for approximately 20 min. A series of calibrated von Frey filaments (1.56-15.0 g, logarithmically spaced) were applied to the plantar aspect of the injured hind paw until a response was elicited. Paw withdrawal thresholds to probing were determined according to a previously described method (Chaplan et al., 1994). Paw withdrawal thresholds were determined to the nearest 0.1 g before surgery, then before and at multiple time points following compound administration. A significant reduction in the paw withdrawal threshold was interpreted as the presence of tactile allodynia.
A model of neuropathic pain was created in rats by tight ligation of the L5 and L6 spinal nerves. […] Rats were then treated with various doses of Compound 1045 (1, 3 and 10 mg/kg, i.p.) and paw withdrawal thresholds were tested across a period of 2 hours.

Another series has as its target T2, NPFF2 (Homo sapiens, UniProt Q9Y5X5).
T2 construct: expressed in transfected cells; host or cells: NIH3T3
Kind of series: Receptor Selection and Amplification Technology (R-SAT) functional assay, NPFF2. Format: cell-based. The note with it: for NPFF2b % Efficacy Mean: Hydrochloride. The gist of the method: as §1

[4] abbreviates: R-SAT data, Table 2, multiple entries = different batches.
The mark [5] stands for this setting: R-SAT data, Table 2, multiple entries = different batches, read-out: NPFF1 % Efficacy Mean.
The mark [6] stands for this setting: cAMP data, Table 2, HEK-T cells.
Setting [7] is: NPFF2b pEC50 Mean, R-SAT data, Table 2, multiple entries = different batches.
Setting [8] is: R-SAT data, Table 2, multiple entries = different batches, read-out: NPFF2b % Efficacy Mean.
Where [9] appears, read: R-SAT, Table 1, Efficacy is relative to endogenous ligand, read-out: NPFF1 % Efficacy.
Setting [10] is: R-SAT, Table 1, Efficacy is relative to endogenous ligand, read-out: NPFF2 % Efficacy.

Values joined by “and” are separate entries in the source; they are usually repeats but may differ in a detail not shown here. Identical values can stand only once. “Also recorded” adds a separate entry of the source. Counter-ions that a name gives are not always drawn. Like-named read-outs stand apart in the source and are kept apart here.

T1 sequence (Q9GZQ6 whole entry, species assumed): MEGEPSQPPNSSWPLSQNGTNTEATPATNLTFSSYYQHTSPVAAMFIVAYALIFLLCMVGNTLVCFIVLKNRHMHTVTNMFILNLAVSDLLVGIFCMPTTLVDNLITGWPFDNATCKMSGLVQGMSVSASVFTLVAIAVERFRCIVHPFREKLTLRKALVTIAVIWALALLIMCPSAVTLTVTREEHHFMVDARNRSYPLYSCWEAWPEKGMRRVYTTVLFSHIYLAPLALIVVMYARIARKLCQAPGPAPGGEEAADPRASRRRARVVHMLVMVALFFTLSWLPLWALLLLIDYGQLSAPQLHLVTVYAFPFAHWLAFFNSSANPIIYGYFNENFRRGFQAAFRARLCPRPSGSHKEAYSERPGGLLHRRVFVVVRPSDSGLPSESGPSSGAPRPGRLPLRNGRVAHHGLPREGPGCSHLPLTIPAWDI
T2 sequence (Q9Y5X5 103-522): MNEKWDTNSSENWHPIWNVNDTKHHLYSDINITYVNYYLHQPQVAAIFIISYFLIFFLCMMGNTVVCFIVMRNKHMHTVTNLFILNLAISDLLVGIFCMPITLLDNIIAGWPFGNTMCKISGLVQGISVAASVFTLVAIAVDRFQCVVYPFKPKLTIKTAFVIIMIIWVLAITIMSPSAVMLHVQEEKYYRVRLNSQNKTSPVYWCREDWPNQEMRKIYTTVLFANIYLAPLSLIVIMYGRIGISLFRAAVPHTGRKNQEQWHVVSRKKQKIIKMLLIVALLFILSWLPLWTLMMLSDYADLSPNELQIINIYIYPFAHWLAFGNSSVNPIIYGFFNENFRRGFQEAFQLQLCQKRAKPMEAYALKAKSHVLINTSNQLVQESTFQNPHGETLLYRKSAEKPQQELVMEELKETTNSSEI

Regarding `NC(N)=NN=Cc1ccc(-c2ccccc2C(F)(F)F)o1` (racemic) [Compound 2616, 1-[(5-(2-(Trifluoromethyl)phenyl)-furan-2-yl)-methyleneamino]guanidine Hydrochloride], the “side effects at doses less than 10 mg/kg” value with rats (rat, in vivo) is listed as “not observed”. The “duration of side effects” value in the series with rats (rat, in vivo, ip, 10 mg/kg) lay in the range of 60 to 90 min. Moreover, in the series on rats (rat, in vivo, ip, 10 mg/kg), the side effects observed result is “demonstrated writhing behavior and appeared lethargic”. Besides, the EC50 at NPFF1 [1] is 0.0398 µM; on NPFF1 [1] (R-SAT data, Table 2, multiple entries = different batches, read-out: NPFF1 pEC50 Mean (converted)), 1.26 µM and 0.316 µM; on NPFF1 [2] (setting [6]), 1.26 µM; on NPFF2 (setting [7]) it was 0.1 µM. In addition, on NPFF1 [1] (setting [4]), the “NPFF1 % Efficacy Mean” value is 66.3% and 52.1%. The Emax was found to be 55% at NPFF1 [1] (setting [5]), 93% at NPFF1 [2] and 63% at NPFF2 (setting [8]). The “effect on L5/L6 SNL-induced tactile allodynia (paw withdrawal thresholds)” value in series [3] (SNL rats, i.p., Hydrochloride) was “either demonstrate very little efficacy or potentiate tactile allodynia; also recorded: dose-related potentiation of tactile allodynia”. The “sensitivity to non-noxious mechanical stimulation in sham-operated rats” value in series [3] (i.p., Hydrochloride) was “produced tactile allodynia in sham-operated rats; also recorded: significant reduction in the paw withdrawal thresholds of sham-operated rats”. In addition, the “NPFF2b % Efficacy Mean” value on NPFF2 (setting [4]) was 80.4% and 72.9%.

Regarding `NC(N)=N/N=C/c1ccc(Cl)c(Cl)c1` [Compound 1045, 1-(3,4-Dichlorobenzylideneamino)guanidine Hydrochloride], the “duration of side effects” value in the series with rats (SNL rats, 30 mg/kg) fell in the range of 60 to 90 min. In addition, the “side effects at doses less than 10 mg/kg” value with rats (rat, in vivo) was “not observed”. Besides, in the series on rats (rat, in vivo, 30 mg/kg), the “new side effects noted” value is “ptosis, shuffling/stomping and biting of forlimbs and hindlimbs”. The side effects observed entry in the series with rats (rat, in vivo, ip, 10 mg/kg) is “demonstrated writhing behavior and appeared lethargic”. The Emax on NPFF1 [1] (setting [5]) is 6.3%; on NPFF1 [1] (setting [9]), 17%; on NPFF2 (setting [8]), 63.8%; at NPFF2 (setting [10]) it was 64%. Also, the “efficacy against SNL-induced tactile allodynia at 30 mg/kg” value in series [3] (SNL rats, 30 mg/kg) was “initially efficacious at the 30 min time-point”. In series [3] (SNL rats, 30 mg/kg, suggests potentiation of tactile allodynia), the “paw withdrawal thresholds by 60 min and until the end of the testing session” value is reported as “significantly reduced the paw withdrawal thresholds to levels below those obtained in SNL vehicle-treated rats”. In addition, in series [3] (SNL rats, i.p.), the “maximum efficacy, reversal of tactile allodynia” value is given as 37.9%. Further, the “sensitivity to non-noxious mechanical stimulation in sham-operated rats” value in series [3] (i.p.) is “did not significantly alter sensitivity to non-noxious mechanical stimulation”. Moreover, the EC50 at NPFF2 (setting [7]) was 0.794 µM and 0.501 µM; on NPFF2 (NPFF2 pEC50, R-SAT, Table 1, NA = No activity detectable at the highest dose tested (20 μM)), 0.794 µM. Also, the “NPFF2b % Efficacy Mean” value on NPFF2 (setting [4]) was 55.2%.

For the compound `Cl.N=C(N)N/N=C/c1ccc(Br)c(Br)c1` [Compound 3093, 1-(3,4-Dibromobenzylideneamino)guanidine Hydrochloride], the “behaviors observed (typically precede barrel-rolling seizures)” value in the series on rats (rat, in vivo, ip, 30 mg/kg) was “immobility and staring, ataxia, splayed hind limbs, body swaying, lying on one side with spastic limb abduction and body distortions”. Besides, on NPFF1 [1] (setting [4]), the “NPFF1 % Efficacy Mean” value is 11.7%. The Emax was 10.2% on NPFF1 [1] (setting [5]); 11% on NPFF1 [1] (setting [9]); 23% at NPFF1 [2] (setting [6]); 85.3% on NPFF2 (setting [8]); 89% at NPFF2 (setting [10]). Further, the EC50 is 15.8 µM on NPFF1 [2] (setting [6]); 0.631 µM and 1.26 µM at NPFF2 (R-SAT data, Table 2, multiple entries = different batches, read-out: NPFF2b pEC50 Mean (converted)); 1.58 µM at NPFF2 (R-SAT, Table 1, NA = No activity detectable at the highest dose tested (20 μM), read-out: NPFF2 pEC50 (converted)). Besides, the “time of peak effect after administration” value in series [3] (SNL rats, i.p.) came to 30 min. For the same compound, in series [3] (SNL rats, i.p., Hydrochloride), the “effect on L5/L6 SNL-induced tactile allodynia (paw withdrawal thresholds)” value was “dose-dependently reverse tactile allodynia; also recorded: dose-related reversal of tactile allodynia”. For the same compound, the “calculated A50, reversal of tactile allodynia” value in series [3] (SNL rats, i.p., 95% CI) was 6.2 mg. Besides, the “NPFF2b % Efficacy Mean” value on NPFF2 (setting [4]) was determined as 89.9%.
